From article PMC6680226, “Peptoid Efficacy against Polymicrobial Biofilms Determined by Using Propidium Monoazide‐Modified Quantitative PCR” (Chembiochem, 2016)
“Also recorded” adds a separate entry of the source. Read-outs that look alike come from different tables or passages of the source.

What was measured:
trypsin = format: in vitro ADME; settings: trypsin 0.5 μg/mL, Tris·HCl 50 mM pH 7.8 with CaCl2 9 mM, 24 h; MALDI-TOF MS read-out
Method: Proteolytic stability studies: Peptoid stability was confirmed by comparing the tryptic digestion of 7 with LL‐37 (Innovagen AB, Lund, Sweden). Stock solutions (5 mg mL^−1) of 7 and LL‐37 were prepared, and samples (7.5 μL) were incubated with trypsin (0.5 μg mL^−1) and incubation buffer (37.5 μL, Tris⋅HCl (50 mM, pH 7.8) containing CaCl2 (9 mM)). After 0 h (for mass spectrometric verification) or 24 h, the reaction mixture was acidified by addition of TFA (10 %, 50 μL) to denature the enzyme and stop enzyme activity. The samples were air‐dried and then reconstituted in acetonitrile/water/TFA (50 μL, 40:59.5:0.5, v/v/v), and an aliquot (1 μL) was placed onto a stainless steel MALDI target. Samples were covered immediately with matrix (1 μL, α‐cyano‐4‐hydroxycinnamic acid (53 mM in acetonitrile/water/TFA, 70:29.98:0.02, v/v/v)). MALDI‐TOF MS was performed on a linear TOF Voyager DE‐mass spectrometer (PerSeptive Biosystems, Farmingham, MA, USA). The samples were analysed in positive detection mode, and internal mass calibration with known standards established the mass accuracy to ±0.1 %. Fifty laser scans were averaged for each sample, and variable laser intensity was used to ensure the most representative mass spectra for the wells.
4. Proteolytic Stability Study […]

HaCaT [1] = assay: alamarBlue cytotoxicity assay, HaCaT keratinocytes; settings: for ED50 HaCaT: alamarBlue viability, 2-100 μM from DMSO stock, 1 h with compound then 24 h incubation at 37 °C, fluorescence, triplicate on a minimum of two occasions; for Toxicity to HaCaT cells (in words): alamarBlue, up to 100 μM
Method: (§7) Peptoid cytotoxicity studies: All 18 peptoids were tested for cytotoxicity against HepG2 epithelial (Sigma–Aldrich) and HaCaT keratinocyte (ThermoFisher) cell lines, Cytotoxicity analyses were performed in Costar 96‐well plates (Thermo Fisher Scientific) with alamarBlue (Invitrogen/Thermo Fisher Scientific) for cell viability detection as described by the manufacturer. HepG2 and HaCaT cells were grown at 37 °C under CO2 (5 %) in DMEM (high glucose) supplemented with heat‐inactivated foetal bovine sera (FBS, 10 %; Biosera, Uckfield, UK) and penicillin/streptomycin (1 %). Cells were counted in a Neubauer Improved Haemocytometer. HepG2 or HaCaT cells were seeded 24 h prior to treatment in 96‐well plates (2×10^4 cells per well in 100 μL). After 24 h, cells were incubated in triplicate with a dilution series of compound (2–100 μM from 5 mM stock solutions in DMSO) in the medium (50 μL) for 1 h. An aliquot (40 μL) was removed from each well, before the addition of medium (90 μL) followed by incubation for 24 h (37 °C, 5 % CO2). Then, alamarBlue (10 μL) was added to each well before incubation (2 h for Hep G2, 1 h for HaCaT) prior to assessing cell viability in a fluorescent plate reader (Biotek, Winooski, VT; λ ex=560 nm, λ em=600 nm). All data were measured in triplicate on a minimum of two occasions.
(§8) Toxicity was determined using an alamarBlue® cytotoxicity assay.

HepG2 [2] = assay: alamarBlue cytotoxicity assay, HepG2 cells; settings: for ED50 HepG2: alamarBlue viability, 2-100 μM from DMSO stock, 1 h with compound then 24 h incubation at 37 °C, fluorescence, triplicate on a minimum of two occasions; for Toxicity to HepG2 cells (in words): alamarBlue, up to 100 μM
[3] = system: C. albicans monospecies biofilm; assay: PMA-qPCR viable cell number, C. albicans monospecies biofilm; format: cell-based, Candida albicans; settings: peptoid 100 μM, 24 h; n=3
Method: (§1) Preparation and treatment of single‐species biofilms: Overnight cultures of C. albicans were washed and resuspended (1.0×10^6 cells per mL) in RPMI‐1640 (Sigma–Aldrich). Overnight cultures of S. aureus or E. coli were washed and resuspended (5.0×10^6 cells per mL) in BHI broth. Samples (100 μL) were added to microtitre plate wells (Thermo Fisher Scientific), and a biofilm was allowed to form for 4 h. Wells were washed with PBS (3×200 μL) to facilitate removal of planktonic cells, and the biofilms were then treated with 1–18 (100 μM in the appropriate medium). Plates were incubated for a further 24 h to allow biofilm maturation. After removal of planktonic cells by washing, biofilms were quantified by the crystal violet assay or by PMA‐qPCR.
(§2) Biofilm quantification by PMA‐modified qPCR: In order to determine the bactericidal and fungicidal activity of peptoids against single‐species and polymicrobial biofilms, the biofilms were detached from the microtitre plate wells prior to quantification. The wells were washed as above, then BHI broth (100 μL) was added and the plate was sealed. Biofilm detachment was achieved by sonication for 5 min in an ultrasonic bath (Dawe, Hayes, Middlesex, UK). The remaining cells were then collected in BHI (80 μL). […]
(§3) Generation of standard curves for PMA‐qPCR: For quantification of C. albicans, S. aureus and E. coli in single‐species and polymicrobial biofilms, DNA standards were prepared by extraction of DNA from planktonic organisms with the microLYSIS‐Plus kit and purification with a DNeasy kit (Qiagen). DNA standards (10^1–10^6 cells) were used in PMA‐qPCR assays to generate standard curves from which the numbers of living organisms within the biofilms could be determined.

[4] = system: E. coli (ATCC 29522) biofilm; assay: Crystal violet assay, E. coli monospecies biofilm; format: cell-based, Escherichia coli; settings: peptoid 100 μM, 24 h treatment of 4 h biofilm; n=3
Method: (§4) Microorganism strains and growth conditions: C. albicans (NCTC 3179) was subcultured aerobically on Sabouraud agar plates, prepared by using Sabouraud dextrose powder and agar (Oxoid, ThermoFisher) and propagated in yeast peptone dextrose broth. E. coli (ATCC 29522) and S. aureus (NCTC 6571) were grown on blood agar plates (Fanin, Dublin, Ireland) and propagated in brain heart infusion (BHI) broth (Oxoid, ThermoFisher).
as §1
(§5) Biofilm quantification by crystal violet assay: Washed biofilms were fixed with methanol (100 μL) for 10 min. Following removal of methanol, the wells were air dried and stained with crystal violet solution (Clin‐Tech, Guildford, UK) for 20 min at room temperature. Excess stain was removed by washing, then the plate was air‐dried and bound crystal violet was re‐solubilised in acetic acid (33 %, 160 μL) prior to reading at 570 nm in a GENios microtitre plate reader (Tecan, Zürich, Switzerland).

[5] = system: E. coli monospecies biofilm; assay: PMA-qPCR viable cell number, E. coli monospecies biofilm; format: cell-based, Escherichia coli; settings: peptoid 100 μM, 24 h; n=3
Method: as §1, §2, §3

[6] = system: C. albicans (NCTC 3179) biofilm; assay: Crystal violet assay, C. albicans monospecies biofilm; format: cell-based, Candida albicans; settings: peptoid 100 μM, 24 h treatment of 4 h biofilm; n=3
Method: as §4, §1, §5

[7] = system: S. aureus in polymicrobial biofilm with C. albicans; assay: PMA-qPCR, S. aureus within C. albicans-S. aureus polymicrobial biofilm; format: cell-based, Staphylococcus aureus; settings: 24 h; for Reduction of cell numbers of S. aureus in mixed-species biofilm: peptoid 10 μM, PMA-qPCR
Method: (§6) Preparation and treatment of polymicrobial biofilms: Overnight cultures of C. albicans were prepared in microtitre plates as above, and allowed to adhere for 4 h to facilitate initial biofilm formation. Planktonic C. albicans cells were removed as above before the addition of S. aureus or E. coli (100 μL, 5.0×10^6 cells per mL). Bacteria were allowed to adhere to the C. albicans biofilms for 4 h to facilitate polymicrobial biofilm formation. Following a washing step, the biofilms were then treated with peptoid (10–100 μM), and incubated for a further 24 h to allow biofilm maturation. Wells were washed as above, and the polymicrobial biofilms were quantified by PMA‐modified qPCR.
Biofilm quantification by PMA‐modified qPCR: In order to determine the bactericidal and fungicidal activity of peptoids against single‐species and polymicrobial biofilms, the biofilms were detached from the microtitre plate wells prior to quantification. The wells were washed as above, then BHI broth (100 μL) was added and the plate was sealed. Biofilm detachment was achieved by sonication for 5 min in an ultrasonic bath (Dawe, Hayes, Middlesex, UK). The remaining cells were then collected in BHI (80 μL). PMA (20 μL, 2 mM in broth;47 Biotium, Fremont, CA) was added to the biofilm suspensions […] and incubated (37 °C, 5 min) prior to photoactivation with a broad‐spectrum LED flood light (60 LED, 0.1 W) placed 15 cm from the tubes (mixed by inversion during the 20 min photoactivation step).48 DNA was extracted by using a microLYSIS‐Plus kit (Microzone, Haywards Heath, UK), and qPCR was performed in a Mx3005P qPCR System (Agilent Technologies).49, 50, 51 See the Tables in the Supporting Information.
as §3

[8] = system: S. aureus (NCTC 6571) biofilm; assay: Crystal violet assay, S. aureus monospecies biofilm; format: cell-based, Staphylococcus aureus; settings: peptoid 100 μM, 24 h treatment of 4 h biofilm; n=3
Method: as §4, §1, §5

HepG2 [9] = system: HepG2
Method: as §7, §8

HaCaT [10] = system: HaCaT
Method: as §7, §8

[11] = system: C. albicans in polymicrobial biofilm with S. aureus; assay: PMA-qPCR, C. albicans within C. albicans-S. aureus polymicrobial biofilm; format: cell-based, Candida albicans; settings: peptoid 100 μM, 24 h; n=3
Method: as §6, §2, §3

Molecule: CC[C@H](C)[C@H](NC(=O)[C@H](CCCCN)NC(=O)[C@H](CCC(=O)O)NC(=O)[C@H](CCCCN)NC(=O)[C@H](CO)NC(=O)[C@H](CCCCN)NC(=O)[C@H](CCCNC(=N)N)NC(=O)[C@H](Cc1ccccc1)NC(=O)[C@H](Cc1ccccc1)NC(=O)[C@H](CC(=O)O)NC(=O)CNC(=O)[C@H](CC(C)C)NC(=O)[C@@H](N)CC(C)C)C(=O)NCC(=O)N[C@@H](CCCCN)C(=O)N[C@@H](CCC(=O)O)C(=O)N[C@@H](Cc1ccccc1)C(=O)N[C@@H](CCCCN)C(=O)N[C@@H](CCCNC(=N)N)C(=O)N[C@H](C(=O)N[C@H](C(=O)N[C@@H](CCC(N)=O)C(=O)N[C@@H](CCCNC(=N)N)C(=O)N[C@H](C(=O)N[C@@H](CCCCN)C(=O)N[C@@H](CC(=O)O)C(=O)N[C@@H](Cc1ccccc1)C(=O)N[C@@H](CC(C)C)C(=O)N[C@@H](CCCNC(=N)N)C(=O)N[C@@H](CC(N)=O)C(=O)N[C@@H](CC(C)C)C(=O)N[C@H](C(=O)N1CCC[C@H]1C(=O)N[C@@H](CCCNC(=N)N)C(=O)N[C@H](C(=O)N[C@@H](CCC(=O)O)C(=O)N[C@@H](CO)C(=O)O)[C@@H](C)O)C(C)C)[C@@H](C)CC)C(C)C)[C@@H](C)CC [LL‐37]
- Degradation after treatment with trypsin (trypsin): degraded to peptide fragments

Molecule: (NLysNpheNphe)2 [Peptoid 3]
- ED50 HaCaT (HaCaT [1]): > 100 µM
- ED50 HepG2 (HepG2 [2]): > 100 µM

Molecule: (NLysNpheNphe)3 [Peptoid 2]
- ED50 HaCaT (HaCaT [1]): > 100 µM
- ED50 HepG2 (HepG2 [2]): > 100 µM

Molecule: (NLysNpheNphe)4 [Peptoid 1]
- ED50 HaCaT (HaCaT [1]): 36 ± 1 µM
- ED50 HepG2 (HepG2 [2]): > 100 µM

Molecule: (NLysNspeNspe)2 [Peptoid 6]
- ED50 HaCaT (HaCaT [1]): > 100 µM
- ED50 HepG2 (HepG2 [2]): > 100 µM

Molecule: (NLysNspeNspe)3 [Peptoid 5]
- ED50 HaCaT (HaCaT [1]): > 100 µM
- Toxicity to HaCaT cells (in words) (HaCaT [1]): negligible toxicity
- ED50 HepG2 (HepG2 [2]): > 100 µM
- Toxicity to HepG2 cells (in words) (HepG2 [2]): negligible toxicity
- Reduction in viable cell number, C. albicans monospecies biofilm (PMA-qPCR) [3]: significant reduction in cell number; also recorded: the greatest reduction in cell number
- Efficacy against E. coli monospecies biofilm (biomass, crystal violet) [4]: amongst the most efficacious
- Reduction in viable cell number, E. coli monospecies biofilm (PMA-qPCR) [5]: significant reduction in cell number
- Efficacy against C. albicans monospecies biofilm (biomass, crystal violet) [6]: amongst the most efficacious
- Reduction of cell numbers of S. aureus in mixed-species biofilm [7]: ~100%
- Reduction in S. aureus cell number in mixed biofilm with C. albicans (PMA-qPCR) ([7]; peptoid 100 μM, n=3): better able to reduce the cell count
- Efficacy against S. aureus monospecies biofilm (biomass, crystal violet) [8]: amongst the most efficacious

Molecule: (NLysNspeNspe)4 [Peptoid 4]
- ED50 HepG2 (HepG2 [9]): 29 ± 1 µM
- ED50 HaCaT (HaCaT [10]): 20 ± 1 µM

Molecule: (NaeNpheNphe)2 [Peptoid 9]
- ED50 HaCaT (HaCaT [1]): > 100 µM
- ED50 HepG2 (HepG2 [2]): > 100 µM

Molecule: (NaeNpheNphe)3 [Peptoid 8]
- ED50 HaCaT (HaCaT [1]): > 100 µM
- ED50 HepG2 (HepG2 [2]): > 100 µM

Molecule: (NaeNpheNphe)4 [Peptoid 7]
- ED50 HaCaT (HaCaT [1]): > 100 µM
- Toxicity to HaCaT cells (in words) (HaCaT [1]): negligible toxicity
- ED50 HepG2 (HepG2 [2]): > 100 µM
- Toxicity to HepG2 cells (in words) (HepG2 [2]): negligible toxicity
- Reduction in viable cell number, C. albicans monospecies biofilm (PMA-qPCR) [3]: significant reduction in cell number
- Reduction in C. albicans cell number in mixed biofilm with S. aureus (PMA-qPCR) [11]: the greatest reduction
- Efficacy against E. coli monospecies biofilm (biomass, crystal violet) [4]: amongst the most efficacious
- Reduction in viable cell number, E. coli monospecies biofilm (PMA-qPCR) [5]: significant reduction in cell number
- Efficacy against C. albicans monospecies biofilm (biomass, crystal violet) [6]: amongst the most efficacious
- Reduction of cell numbers of S. aureus in mixed-species biofilm [7]: ~100%
- Efficacy against S. aureus monospecies biofilm (biomass, crystal violet) [8]: amongst the most efficacious

Molecule: (NaeNspeNspe)2 [Peptoid 12]
- ED50 HaCaT (HaCaT [1]): > 100 µM
- ED50 HepG2 (HepG2 [2]): > 100 µM

Molecule: (NaeNspeNspe)3 [Peptoid 11]
- ED50 HaCaT (HaCaT [1]): > 100 µM
- ED50 HepG2 (HepG2 [2]): > 100 µM

Molecule: (NaeNspeNspe)4 [Peptoid 10]
- ED50 HaCaT (HaCaT [1]): 26 ± 2 µM
- ED50 HepG2 (HepG2 [2]): 41 ± 2 µM

Molecule: (NahNpheNphe)2 [Peptoid 15]
- ED50 HaCaT (HaCaT [1]): > 100 µM
- ED50 HepG2 (HepG2 [2]): > 100 µM

Molecule: (NahNpheNphe)3 [Peptoid 14]
- ED50 HaCaT (HaCaT [1]): > 100 µM
- ED50 HepG2 (HepG2 [2]): > 100 µM

Molecule: (NahNpheNphe)4 [Peptoid 13]
- ED50 HaCaT (HaCaT [1]): > 100 µM
- ED50 HepG2 (HepG2 [2]): > 100 µM

Molecule: (NahNspeNspe)2 [Peptoid 18]
- ED50 HaCaT (HaCaT [1]): > 100 µM
- ED50 HepG2 (HepG2 [2]): > 100 µM

Molecule: (NahNspeNspe)4 [Peptoid 16]
- ED50 HaCaT (HaCaT [1]): 23 ± 1 µM
- ED50 HepG2 (HepG2 [2]): 41 ± 1 µM
